We go through 22 compounds from patent publication US4510139A, “Substituted aminobenzamides and their use as agents which inhibit lipoxygenase activity” (Sterling Drug Inc., priority 1984, dated 1985).

Where two headings read alike, the source gives them in different places.

Assay [1] deals with T1, cyclooxygenase (Rattus norvegicus, UniProt Q63921).
T1 construct: microsomal fraction containing lipoxygenase and cyclooxygenase; endogenous in cells; host or cells: RBL-1 (rat basophilic leukemia) cells, homogenate / microsomal fraction
T1 sequence (Q63921 27-602): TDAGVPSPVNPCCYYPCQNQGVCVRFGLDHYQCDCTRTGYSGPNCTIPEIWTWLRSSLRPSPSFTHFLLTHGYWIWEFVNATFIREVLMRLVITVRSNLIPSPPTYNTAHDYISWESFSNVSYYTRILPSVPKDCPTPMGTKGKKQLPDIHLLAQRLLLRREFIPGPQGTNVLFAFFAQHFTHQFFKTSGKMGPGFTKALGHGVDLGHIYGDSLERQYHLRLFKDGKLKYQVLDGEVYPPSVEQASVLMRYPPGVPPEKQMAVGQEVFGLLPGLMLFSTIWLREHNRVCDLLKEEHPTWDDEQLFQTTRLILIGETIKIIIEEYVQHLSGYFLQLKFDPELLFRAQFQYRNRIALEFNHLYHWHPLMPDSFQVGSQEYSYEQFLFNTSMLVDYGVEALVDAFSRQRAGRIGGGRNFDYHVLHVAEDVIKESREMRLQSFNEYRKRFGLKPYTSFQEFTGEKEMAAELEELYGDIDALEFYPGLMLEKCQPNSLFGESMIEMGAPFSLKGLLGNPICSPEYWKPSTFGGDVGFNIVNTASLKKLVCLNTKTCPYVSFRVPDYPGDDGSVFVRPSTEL
As to the kind of experiment: Inhibition of cyclooxygenase derived from rat basophilic leukemia (RBL-1) cells, product C1 (PGD2). Format: biochemical. The following applies: for inhibition at 1 µM: dose of 1 μM. On the procedure:
(§1) The primary screening test used is a determination of the inhibition of lipoxygenase and cyclooxygenase derived from rat basophilic leukemia (RBL-1) cells. The test was carried out according to the following procedure:
(§2) Single cell suspensions of RBL-1 cells are homogenized to obtain the microsomal fraction containing lipoxygenase and cyclooxygenase. Test compounds are added to the enzyme-containing homogenate for a 5 min preincubation period at 37° C. prior to the addition of ^14 C-arachidonic acid substrate. Following incubation at 37° C. for 15 min, the reaction is stopped by the addition of 2M formic acid and the enzyme-substrate products are extracted into chloroform. An aliquot of the extract is evaporated to dryness, reconstituted in ether to 1/10 original volume, spotted in thin layer chromatography plates and chromatographed. The peak areas of radioactivity representing the products are located by scanning the plates. The quantity of products formed is estimated by measuring the height of the radioactivity peaks observed on the chromatographic scans. Alternatively, the areas of radioactivity are scraped from the plate and the ^14 C quantitated by scintillation counting.

Assay [2] has as its target T2, lipoxygenase (Rattus norvegicus, UniProt P12527).
T2 construct: microsomal fraction containing lipoxygenase and cyclooxygenase; endogenous in cells; host or cells: RBL-1 (rat basophilic leukemia) cells, homogenate / microsomal fraction
T2 sequence (P12527 1-673): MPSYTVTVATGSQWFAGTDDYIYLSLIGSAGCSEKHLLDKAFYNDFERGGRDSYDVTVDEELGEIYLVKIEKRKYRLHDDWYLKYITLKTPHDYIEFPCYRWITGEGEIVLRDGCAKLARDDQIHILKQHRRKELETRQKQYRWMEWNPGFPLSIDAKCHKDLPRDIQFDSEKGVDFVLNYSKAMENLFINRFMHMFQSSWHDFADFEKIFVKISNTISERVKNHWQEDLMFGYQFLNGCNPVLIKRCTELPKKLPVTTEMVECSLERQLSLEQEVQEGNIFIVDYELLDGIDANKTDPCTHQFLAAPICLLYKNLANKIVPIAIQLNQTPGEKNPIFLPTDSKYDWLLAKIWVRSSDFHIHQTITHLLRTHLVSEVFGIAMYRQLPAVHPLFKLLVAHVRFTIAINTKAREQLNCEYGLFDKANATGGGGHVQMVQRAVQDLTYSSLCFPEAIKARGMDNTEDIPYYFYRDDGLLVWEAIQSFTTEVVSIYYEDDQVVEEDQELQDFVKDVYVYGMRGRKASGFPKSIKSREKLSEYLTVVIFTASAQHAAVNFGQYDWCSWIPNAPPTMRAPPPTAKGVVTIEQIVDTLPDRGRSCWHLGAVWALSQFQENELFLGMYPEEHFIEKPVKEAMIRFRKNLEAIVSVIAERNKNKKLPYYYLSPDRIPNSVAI
As to the kind of experiment: Inhibition of lipoxygenase derived from rat basophilic leukemia (RBL-1) cells, products L1 (5,12-di-HETE) and L2 (5-HETE). In kind it is biochemical. To be noted: for inhibition at 10 µM: dose of 10 μM. Here is the method: as §1, §2

[3] abbreviates: read-out: % Inhibition of cyclooxygenase (C1) formation.
Where [4] appears, read: read-out: % Inhibition of lipoxygenase (L1) formation.
Setting [5] is: read-out: % Inhibition of lipoxygenase (L2) formation.
[6] abbreviates: dose of 1 μM, L1 = 5,12-di-HETE, read-out: % Inhibition of lipoxygenase (L1) formation.
[7] abbreviates: dose of 1 μM, L2 = 5-HETE, read-out: % Inhibition of lipoxygenase (L2) formation.

As to `O=C1C=CC(=Nc2ccccc2C(=O)N2CCCCC2)C=C1` [Example 2, 1-{2-[(4-Oxo-2,5-cyclohexadien-1-ylidene)amino]benzoyl}piperidine], the IC50 in assay [1] is above 1000 nM; in assay [2] (IC50 L1, L1 = 5,12-di-HETE), 450 nM; in assay [2] (IC50 L2, L2 = 5-HETE), 130 nM. Also, the results for the inhibition at 1 µM in assay [1] (setting [3]), in assay [2] (setting [4]) and in assay [2] (setting [5]) were 0%, 68% and 82%, respectively.
In the case of `NC(=O)c1ccccc1Nc1ccc(O)cc1` [Example 3(b), 2-(4-Hydroxyphenylamino)benzamide], the IC50 in assay [1] was above 1000 nM; in assay [2] (IC50 L1, L1 = 5,12-di-HETE), 310 nM; in assay [2] (IC50 L2, L2 = 5-HETE), 150 nM. Also, the inhibition at 1 µM in assay [1] (setting [3]) stood at 14%; in assay [2] (setting [4]) it was 78%; in assay [2] (setting [5]), 83%.
Turning to `O=C(c1ccccc1Nc1ccc(O)cc1)N1CCCC1` [Example 4(b), 1-[2-(4-Hydroxyphenylamino)benzoyl]pyrrolidine], the values for the inhibition at 1 µM in assay [1] (setting [3]), in assay [2] (setting [6]) and in assay [2] (setting [7]) were 0%, 41% and 52%, respectively.
Regarding `CCCNC(=O)c1ccccc1Nc1ccc(O)cc1` [Example 5(b), 2-(4-Hydroxyphenylamino)-N-propylbenzamide], the IC50 in assay [1] is above 1000 nM; in assay [2] (IC50 L1, L1 = 5,12-di-HETE), 130 nM; in assay [2] (IC50 L2, L2 = 5-HETE) it was 110 nM. Also, the inhibition at 1 µM in assay [1] (setting [3]) was 6%; in assay [2] (setting [4]) it was 62%; in assay [2] (setting [5]) it was 85%.
`CC1CCN(C(=O)c2ccccc2Nc2ccc(O)cc2)CC1` [Example 6(b), 1-[2-(4-Hydroxyphenylamino)benzoyl]-4-methylpiperidine]: the inhibition at 1 µM in assay [1] (setting [3]) worked out at 7%; in assay [2] (setting [6]) it was 54%; in assay [2] (setting [7]) it was 77%.
The corresponding values for `CNC(=O)c1ccccc1Nc1ccc(O)cc1` [Example 7(b), 2-(4-Hydroxyphenylamino)-N-methylbenzamide] are 2%, 23% and 48%.
As to `CCN(CC)C(=O)c1ccccc1Nc1ccc(O)cc1` [Example 8(b), N,N-Diethyl-2-(4-hydroxyphenylamino)benzamide], the inhibition at 1 µM is 0% in assay [1] (setting [3]), 33% in assay [2] (setting [6]) and 63% in assay [2] (setting [7]).
The corresponding values for `CC(C)NC(=O)c1ccccc1Nc1ccc(O)cc1` [Example 9(b), 2-(4-Hydroxyphenylamino)-N-isopropylbenzamide] are 0%, 72% and 78%.
For `CN(C)C(=O)c1ccccc1Nc1ccc(O)cc1` [Example 10(b), 2-(4-Hydroxyphenylamino)-N,N-dimethylbenzamide], the inhibition at 1 µM in assay [1] (setting [3]) worked out at 1%; in assay [2] (setting [6]), 34%; in assay [2] (setting [7]), 56%.
Consider `O=C(NC1CCCCC1)c1ccccc1Nc1ccc(O)cc1` [Example 12(b), N-Cyclohexyl-2-(4-hydroxyphenylamino)benzamide], for which the IC50 in assay [1] is above 1000 nM; in assay [2] (IC50 L1, L1 = 5,12-di-HETE) it was 120 nM; in assay [2] (IC50 L2, L2 = 5-HETE), 110 nM. Further, the inhibition at 1 µM in assay [1] (setting [3]) came out at 0%; in assay [2] (setting [4]) it was 80%; in assay [2] (setting [5]), 94%.
Consider `CCN(C)C(=O)c1ccccc1Nc1ccc(O)cc1` [Example 13(b), 2-(4-Hydroxyphenylamino)-N-ethyl-N-methylbenzamide], for which the inhibition at 1 µM in assay [1] (setting [3]) came out at 0%; in assay [2] (setting [6]), 66%; in assay [2] (setting [7]), 77%.
`CCCN(CC)C(=O)c1ccccc1Nc1ccc(O)cc1` [Example 14(b), 2-(4-Hydroxyphenylamino)-N-ethyl-N-propylbenzamide]: the IC50 in assay [1] is above 1000 nM; in assay [2] (IC50 L1, L1 = 5,12-di-HETE) it was 180 nM; in assay [2] (IC50 L2, L2 = 5-HETE) it was 110 nM. Further, the inhibition at 1 µM in assay [1] (setting [3]) was determined as 0%; in assay [2] (setting [4]), 78%; in assay [2] (setting [5]), 95%.
As for `O=C(c1ccccc1Nc1ccccc1O)N1CCCCC1` [Example 15(d), 1-[2-(2-Hydroxyphenylamino)benzoyl]piperidine], the IC50 was above 1000 nM in assay [1]; 720 nM in assay [2] (IC50 L1, L1 = 5,12-di-HETE); 180 nM in assay [2] (IC50 L2, L2 = 5-HETE). Besides, the inhibition at 1 µM is 2% in assay [1] (setting [3]), 58% in assay [2] (setting [4]) and 80% in assay [2] (setting [5]).
`O=C(c1ccccc1Nc1ccc(O)cc1)N1CCOCC1` [Example 16(c), 4-[2-(4-Hydroxyphenylamino)benzoyl]morpholine]: the inhibition at 1 µM in assay [1] (setting [3]) was found to be 1%; in assay [2] (setting [6]), 37%; in assay [2] (setting [7]), 42%.
The corresponding values for `CCN(CC)C(=O)c1cc(Cl)ccc1Nc1ccc(O)cc1` [Example 17(d), 5-Chloro-N,N-diethyl-2-(4-hydroxyphenylamino)benzamide] are 0%, 56% and 73%.
Consider `O=C(c1cc(Cl)ccc1Nc1ccc(O)cc1)N1CCCCC1` [Example 18(b), 1-[5-Chloro-2-(4-hydroxyphenylamino)benzoyl]piperidine], for which the inhibition at 1 µM in assay [1] (setting [3]) was found to be 16%; in assay [2] (setting [6]) it was 63%; in assay [2] (setting [7]), 75%.
The corresponding values for `O=C(c1ccc(Cl)cc1Nc1ccc(O)cc1)N1CCCC1` [Example 19(d), 1-[4-Chloro-2-(4-hydroxyphenylamino)benzoyl]pyrrolidine] are 7%, 24% and 42%.
The corresponding values for `O=C(c1ccc(Cl)cc1Nc1ccc(O)cc1)N1CCCCC1` [Example 20(b), 1-[4-Chloro-2-(4-hydroxyphenylamino)benzoyl]piperidine] are 12%, 32% and 44%.
Turning to `CNC(=O)c1ccc(Cl)cc1Nc1ccc(O)cc1` [Example 21(b), 4-Chloro-2-(4-hydroxyphenylamino)-N-methylbenzamide], the 50% inhibitory concentration (IC50) in assay [1] was above 1000 nM; in assay [2] (IC50 L1, L1 = 5,12-di-HETE) it was 360 nM; in assay [2] (IC50 L2, L2 = 5-HETE), 180 nM.
On to `COc1ccc(Nc2ccc(O)cc2)c(C(=O)NCc2ccccc2)c1` [Example 22(d), 2-(4-Hydroxyphenylamino)-N-benzyl-5-methoxybenzamide], for which the half-inhibitory concentration (IC50) in assay [1] was above 1000 nM; in assay [2] (IC50 L1, L1 = 5,12-di-HETE), 300 nM; in assay [2] (IC50 L2, L2 = 5-HETE), 260 nM. The inhibition at 1 µM is 0% in assay [1] (setting [3]), 81% in assay [2] (setting [4]) and 97% in assay [2] (setting [5]).
`COc1ccc(Nc2ccc(O)cc2)c(C(=O)N2CCCCC2)c1` [Example 23(b), 1-[2-(4-Hydroxyphenylamino)-5-methoxybenzoyl]piperidine]: the 50% inhibitory concentration (IC50) was above 1000 nM in assay [1]; 540 nM in assay [2] (IC50 L1, L1 = 5,12-di-HETE); 610 nM in assay [2] (IC50 L2, L2 = 5-HETE). In addition, the inhibition at 1 µM in assay [1] (setting [3]) was found to be 19%; in assay [2] (setting [4]) it was 89%; in assay [2] (setting [5]), 96%.
As for `O=C(c1ccccc1Nc1cccc(O)c1)N1CCCCC1` [Example 24(d), 1-[2-(3-Hydroxyphenylamino)benzoyl]piperidine], the inhibition at 10 µM in assay [1] (dose of 10 μM, read-out: % Inhibition of cyclooxygenase (C1) formation) came out at 42%; in assay [2] (L1 = 5,12-di-HETE, read-out: % Inhibition of lipoxygenase (L1) formation), 47%; in assay [2] (L2 = 5-HETE, read-out: % Inhibition of lipoxygenase (L2) formation), 56%.
